Results from patent publication US12180187B2, “1-phenyl-5-azinylpyrazolyl-3-oxyalkyl acids and their use for controlling unwanted plant growth” (BAYER AKTIENGESELLSCHAFT, priority 2019, dated 2024).

Assays:
SETVI [1] = assay: Pre-emergence action against SETVI, 1280 g/ha; assay type: in vivo, Setaria viridis; conditions: visual scoring after about 3 weeks vs untreated controls, 100% = plants have died, 0% = like control plants
Outline: (§1)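 Weed seeds sown in sandy loam in pots, covered with soil; compound as WP or EC applied to soil surface as aqueous suspension/emulsion with 0.5% additive at 600 L/ha water. Greenhouse, good growth conditions; visual % damage vs untreated controls after about 3 weeks (100% = plants dead, 0% = like control).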

STEME = assay: Pre-emergence action against STEME, 1280 g/ha; assay type: in vivo, Stellaria media; conditions: scored visually after about 3 weeks vs untreated controls (100% = plants have died)
Outline: as §1

DIGSA = assay: Pre-emergence action at 320 g/ha against DIGSA; assay type: in vivo, Digitaria sanguinalis; conditions: visual scoring after about 3 weeks vs untreated controls
Outline: (§2)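 Greenhouse pot trial in which formulated compound (wettable powder or emulsion concentrate) goes onto the soil surface right after sowing, at a spray volume of 600 l/ha including 0.5% additive. Effects are judged visually after about 3 weeks (0% = like control, 100% = dead).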

SETVI [2] = assay: Pre-emergence action at 320 g/ha against SETVI; assay type: in vivo, Setaria viridis; conditions: visual scoring after about 3 weeks vs untreated controls
Outline: as §2

MATIN = assay: Pre-emergence action against MATIN, 1280 g/ha; assay type: in vivo, Tripleurospermum inodorum (Matricaria inodora); conditions: scored visually after about 3 weeks vs untreated controls (100% = plants have died)
Outline: as §1

ECHCG = assay: Pre-emergence action against ECHCG, 1280 g/ha; assay type: in vivo, Echinochloa crus-galli; conditions: visual scoring after about 3 weeks vs untreated controls, 100% = plants have died, 0% = like control plants
Outline: as §1

POLCO = assay: Pre-emergence action at 320 g/ha against POLCO; assay type: in vivo, Fallopia convolvulus (Polygonum convolvulus); conditions: visual scoring after about 3 weeks vs untreated controls
Outline: as §2

ABUTH = assay: Post-emergence action against ABUTH, 1.28 kg/ha; assay type: in vivo, Abutilon theophrasti; conditions: dosage 1280 g/ha, visual rating about 3 weeks after treatment vs untreated controls (100% = plants died)
Outline: (§3)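 Foliar application at the one-leaf stage: compound as WP or EC in water with 0.5% additive, sprayed at 600 L/ha. Plants are kept about 3 weeks in the greenhouse, then % herbicidal action is estimated visually (100% = death).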

ALOMY = assay: Pre-emergence action at 320 g/ha against ALOMY; assay type: in vivo, Alopecurus myosuroides; conditions: scored visually after about 3 weeks vs untreated controls (100% = plants have died)
Outline: as §2

POAAN [3] = assay: Post-emergence action against POAAN, 1.28 kg/ha; assay type: in vivo, Poa annua; conditions: dosage 1280 g/ha, visual rating about 3 weeks after treatment vs untreated controls
Outline: as §3

POAAN [4] = assay: Pre-emergence action against POAAN, 1280 g/ha; assay type: in vivo, Poa annua; conditions: visual scoring after about 3 weeks vs untreated controls, 100% = plants have died, 0% = like control plants
Outline: as §1

SETVI [5] = assay: Post-emergence action at 320 g/ha against SETVI; assay type: in vivo, Setaria viridis; conditions: visual rating about 3 weeks after treatment vs untreated controls
Outline: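 Activity is a visual rating against untreated controls, with 0% like control and 100% dead plants, made about 3 weeks after treatment. Plants grown in sandy loam in the greenhouse received a post-emergence spray at the one-leaf stage of 320 g/ha, formulated as WP or EC with 0.5% additive in 600 l/ha water.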

AMARE [6] = assay: Pre-emergence action against AMARE, 1280 g/ha; assay type: in vivo, Amaranthus retroflexus; conditions: scored visually after about 3 weeks vs untreated controls (100% = plants have died)
Outline: as §1

AMARE [7] = assay: Pre-emergence action at 320 g/ha against AMARE; assay type: in vivo, Amaranthus retroflexus; conditions: visual scoring after about 3 weeks vs untreated controls
Outline: as §2

CN(C)S(=O)(=O)NC(=O)COc1nn(-c2ccccc2F)c(-c2ccc(F)nc2)c1Br [Example X-005]
100%: Pre-emergence action against SETVI (SETVI [1]) | Pre-emergence action against STEME (STEME) | Pre-emergence action against DIGSA in % (DIGSA) | Pre-emergence action against SETVI in % (SETVI [2]) | Pre-emergence action against MATIN (MATIN) | Pre-emergence action against ECHCG (ECHCG) | Pre-emergence action at 320 g/ha against ALOMY in % (ALOMY) | Post-emergence action against POAAN (POAAN [3]) | Pre-emergence action against POAAN (POAAN [4]) | Pre-emergence action against AMARE (AMARE [6]) | Pre-emergence action against AMARE in % (AMARE [7])
90%: Pre-emergence action against POLCO in % (POLCO) | Post-emergence action against ABUTH (ABUTH) | Post-emergence action against SETVI in % (SETVI [5])

COC(=O)CNC(=O)COc1nn(-c2ccccc2F)c(-c2ccc(F)nc2)c1C(F)(F)F [Example X-007]
90%: Pre-emergence action against POLCO in % (POLCO) | Post-emergence action against ABUTH (ABUTH)
80%: Post-emergence action against SETVI in % (SETVI [5])
100%: Pre-emergence action against SETVI (SETVI [1]) | Pre-emergence action against STEME (STEME) | Pre-emergence action against DIGSA in % (DIGSA) | Pre-emergence action against SETVI in % (SETVI [2]) | Pre-emergence action against MATIN (MATIN) | Pre-emergence action against ECHCG (ECHCG) | Pre-emergence action at 320 g/ha against ALOMY in % (ALOMY) | Post-emergence action against POAAN (POAAN [3]) | Pre-emergence action against POAAN (POAAN [4]) | Pre-emergence action against AMARE (AMARE [6]) | Pre-emergence action against AMARE in % (AMARE [7])

COC(=O)COc1nn(-c2ccccc2F)c(-c2cncnc2)c1Br [VI-004, Methyl {[4-bromo-1-(2-fluorophenyl)-5-(pyrimidin-5-yl)-1H-pyrazol-3-yl]oxy}acetate]
100%: pest or weed control at 1280 g/ha (SETVI [1]; Setaria viridis, 504 h) | pest or weed control at 1280 g/ha (STEME; Stellaria media, 504 h) | pest or weed control at 320 g/ha (DIGSA; Digitaria sanguinalis, 504 h) | pest or weed control at 1280 g/ha (MATIN; Tripleurospermum inodorum, 504 h) | pest or weed control at 1280 g/ha (ECHCG; Echinochloa crus-galli, 504 h) | pest or weed control at 320 g/ha (ALOMY; Alopecurus myosuroides, 504 h) | pest or weed control at 1280 g/ha (POAAN [3]; Poa annua, 504 h) | pest or weed control at 1280 g/ha (POAAN [4]; Poa annua, 504 h) | pest or weed control at 1280 g/ha (AMARE [6]; Amaranthus retroflexus, 504 h) | pest or weed control at 320 g/ha (AMARE [7]; Amaranthus retroflexus, 504 h)
80%: Post-emergence action against SETVI in % (SETVI [5])
90%: pest or weed control at 320 g/ha (SETVI [2]; Setaria viridis, 504 h) | pest or weed control at 320 g/ha (POLCO; Fallopia convolvulus, 504 h) | Post-emergence action against ABUTH (ABUTH)

COC(=O)[C@@H](C)Oc1nn(-c2ccccc2)c(-c2cncnc2)c1Br [VI-013]
90%: Pre-emergence action against MATIN (MATIN) | Pre-emergence action against POLCO in % (POLCO) | Post-emergence action against ABUTH (ABUTH) | Pre-emergence action at 320 g/ha against ALOMY in % (ALOMY) | Post-emergence action against SETVI in % (SETVI [5]) | Pre-emergence action against AMARE in % (AMARE [7])
100%: Pre-emergence action against SETVI (SETVI [1]) | Pre-emergence action against STEME (STEME) | Pre-emergence action against DIGSA in % (DIGSA) | Pre-emergence action against SETVI in % (SETVI [2]) | Pre-emergence action against ECHCG (ECHCG) | Post-emergence action against POAAN (POAAN [3]) | Pre-emergence action against POAAN (POAAN [4]) | Pre-emergence action against AMARE (AMARE [6])

COC(=O)COc1nn(-c2ccc(F)cc2)c(-c2ccc(F)nc2)c1Br [VII-002]
90%: Pre-emergence action against SETVI in % (SETVI [2]) | Pre-emergence action against MATIN (MATIN) | Post-emergence action against ABUTH (ABUTH) | Pre-emergence action at 320 g/ha against ALOMY in % (ALOMY)
100%: Pre-emergence action against SETVI (SETVI [1]) | Pre-emergence action against STEME (STEME) | Pre-emergence action against DIGSA in % (DIGSA) | Pre-emergence action against ECHCG (ECHCG) | Pre-emergence action against POLCO in % (POLCO) | Post-emergence action against POAAN (POAAN [3]) | Pre-emergence action against POAAN (POAAN [4]) | Pre-emergence action against AMARE (AMARE [6]) | Pre-emergence action against AMARE in % (AMARE [7])
80%: Post-emergence action against SETVI in % (SETVI [5])
